Experiment: DPPH antioxidant (radical scavenging) test
Conditions: 1 mM; absorbance relative to control, 517 nm, 30 minutes
Description: In order to measure the antioxidant effect of the ginseng extract prepared by the method of the present invention, a DPPH (1,1-diphenyl-2-picrylhydrazyl) method was used. DPPH is a color-developed radical, and can be used to directly confirm the radical removing ability of the same. […] An absorbance was measured at 517 nm to determine the amount of the remaining DPPH. The blank of this test is distilled water or a solvent, and a control is an experimental group composed only of DPPH and distilled water without the sample. The antioxidant ability (Radical Scavenging activity: RSA) was determined by the following equation 1, compared with the absorbances of the controls, and the lowered ratios are shown in Table 2. RSA (%)=[Absorbance of Hydroxylate/Absorbance of Control]×100 [Equation 1]

O=C1O[C@H]([C@@H](O)CO)C(O)=C1O [Vitamin C]
RSA (%): 35%

— US20070224297A1, “Method for increasing content of physiologically active substance in ginseng” (priority 2006, published 2007)
